One assay addresses CDK9/CyclinT1 (Homo sapiens (Human), UniProt P50750). The assay can be described thus: CDK9/CycT1 high ATP kinase assay (TR-FRET). It is filed as biochemical. To be noted: 2 mM ATP (high ATP); median; read-out: CDK9/CyclinT1, 2 mM ATP (high ATP), IC50 - [mol/l] (median). The protocol: CDK9/CycT1-inhibitory activity of compounds of the present invention at a high ATP concentration after preincubation of enzyme and test compounds was quantified employing the CDK9/CycT1 TR-FRET assay as described in the following paragraphs.
Recombinant full-length His-tagged human CDK9 and CycT1, expressed in insect cells and purified by Ni-NTA affinity chromatography, were purchased from Life Technologies (Cat. No PV4131). As substrate for the kinase reaction biotinylated peptide biotin-Ttds-YISPLKSPYKISEG (C-terminus in amide form) was used which can be purchased e.g. form the company JERINI peptide technologies (Berlin, Germany).
For the assay 50 nanoL of a 100 fold concentrated solution of the test compound in DMSO was pipetted into either a black low volume 384 well microtiter plate or a black 1536 well microtiter plate (both Greiner Bio-One, Frickenhausen, Germany), 2 microL of a solution of CDK9/CycT1 in aqueous assay buffer [50 millimol/L Tris/HCl PH 8.0, 10 millimol/L MgCl2, 1.0 millimol/L dithiothreitol, 0.1 millimol/L sodium ortho-vanadate, 0.01% (v/v) Nonidet-P40 (Sigma)] were added and the mixture was incubated for 15 min at 22° C. to allow pre-binding of the test compounds to the enzyme before the start of the kinase reaction. Then the kinase reaction was started by the addition of 3 microL of a solution of adenosine-tri-phosphate (ATP, 3.3 millimol/L=>final conc. in the 5 microL assay volume is 2 millimol/L) and substrate (1.25 micromol/L=>final conc. in the 5 microL assay volume is 0.75 micromol/L) in assay buffer and the resulting mixture was incubated for a reaction time of 25 min at 22° C. The concentration of CDK9/CycT1 was adjusted depending of the activity of the enzyme lot and was chosen appropriate to have the assay in the linear range, typical concentrations were in the range of 0.5 microg/ml. The reaction was stopped by the addition of 3 microL of a solution of TR-FRET detection reagents (0.33 micromol/L streptavidine-XL665 [Cisbio Bioassays, Codolet, France] and 1.67 nanomol/L anti-RB (pSer807/pSer811)-antibody from BD Pharmingen [#558389] and 2 nanomol/L LANCE EU-W1024 labeled anti-mouse IgG antibody [Perkin-Elmer, product no. AD0077]) in an aqueous EDTA-solution (167 millimol/L EDTA, 0.2% (w/v) bovine serum albumin in 100 millimol/L HEPES pH 7.5).
The resulting mixture was incubated 1 h at 22° C. to allow the formation of complex between the phosphorylated biotinylated peptide and the detection reagents. Subsequently the amount of phosphorylated substrate was evaluated by measurement of the resonance energy transfer from the Eu-chelate to the streptavidine-XL. Therefore, the fluorescence emissions at 620 nm and 665 nm after excitation at 350 nm was measured in a TR-FRET reader, e.g. a Pherastar (BMG Labtechnologies, Offenburg, Germany) or a Viewlux (Perkin-Elmer). The ratio of the emissions at 665 nm and at […] was taken as the measure for the amount of phosphorylated substrate. The data were normalised (enzyme reaction without inhibitor=0% inhibition, all other assay components but no enzyme=100% inhibition).
A general note: Time-resolved FRET reads energy transfer from a long-lived donor to a nearby acceptor.

In another assay the target is CDK12 (Homo sapiens (Human), UniProt Q9NYV4). Nature of the assay: CDK12 nuclear protein level: immunofluorescence/high content analysis in CAL-120 cells. It is filed as cell-based. As to conditions: 24 h, nuclear CDK12 staining intensity, median, read-out: CDK12 degradation IF, DC50 - [mol/l] (median). The protocol:
In the context of the present invention, the term “DC50 CDK12” refers to the DC50 values obtained according to the assay described in this section (7) herein below, i.e. the DC50 values for the degradation of CDK12.
CAL-120 human breast cancer cells (DSMZ ACC 459) are seeded in 1536-well microtiter plates (800 cells per well) containing 50 nanoL of compounds in Dose-Response. Control wells received DMSO or Example 4. Plates are then incubated for 24 h at 37° C. in an humidified incubator and fixed with 4% PFA for 10 min. Then immunofluorescence (IF) against CDK12 (CellSignalling CDK12 Antibody #11973, rabbit, 1:100 dilution) is performed using standard IF protocols. Cells are then stained with Hoechst 33342 (Life Technologies, H-1399, 0.1 microg/ml) and imaged on an automated confocal microscopy system (e.g. Perkin Elmer Opera Phenix). Nuclear and cytoplasmic intensity as well as the nuclear/cytoplasmic intensity ratio is determined by automated image analysis using custom generated scripts (MetaXpress). Data is then transferred to Genedata Screener software, normalized to DMSO and control and DC50 values (degrading concentration to achieve 50% reduction of nuclear CDK12 staining intensity relative to controls) are reported.

The test system of assay [1] is BRCA1 mRNA expression in MDA-MB-231 cells. Nature of the assay: qRT-PCR assay: inhibition of BRCA1 mRNA expression in MDA-MB-231 cells. The format is cell-based. As to conditions: Homo sapiens, 24 h exposure, BRCA1 normalised to GAPDH, median, read-out: RTqPCR-MDA-MB-231, IC50 [mol/l], BRCA1 (median). The protocol: 3. qRT-PCR Assay: BRCA1, ATR, MCL1 in MDA-MB-231, CAL-120
Tissue cultured human MDA-MB-231 human breast cancer cells were plated in 500 microL per well at 200,000 cells/well in a 24 well microtiter plate. After 24 h, the cells were exposed continuously for 24 h to test substances (substances were added with Tecan HP D300 Dispenser). RNA was prepared using Qiagen RNeasy MiniKit (#74106), RNA was quantified using a NanoDrop Equipment, and 600 nano grams of RNA was converted to cDNA using a SuperScript VILO kit (Thermofisher #11755050) followed by qPCR amplification. BRCA1 and ATR gene expression was measured by RT-qPCR and normalised to GAPDH housekeeping gene expression. qPCR primer sets have been purchased from Thermo Fisher Scientific/Applied Biosystems: BRCA1, #Hs 01556193; ATR. #Hs 00992123: GAPDH. #Hs 03929097.
In general terms: Quantitative PCR measures a nucleic acid by following its amplification.

These results are taken from patent US20250066370A1, “BICYCLIC TRIAZINE DERIVATIVES FOR THE TREATMENT OF CANCER” (DEUTSCHES KREBSFORSCHUNGSZENTRUM, priority 2022, published 2025).

Sequence of CDK9/CyclinT1 (P50750 whole entry): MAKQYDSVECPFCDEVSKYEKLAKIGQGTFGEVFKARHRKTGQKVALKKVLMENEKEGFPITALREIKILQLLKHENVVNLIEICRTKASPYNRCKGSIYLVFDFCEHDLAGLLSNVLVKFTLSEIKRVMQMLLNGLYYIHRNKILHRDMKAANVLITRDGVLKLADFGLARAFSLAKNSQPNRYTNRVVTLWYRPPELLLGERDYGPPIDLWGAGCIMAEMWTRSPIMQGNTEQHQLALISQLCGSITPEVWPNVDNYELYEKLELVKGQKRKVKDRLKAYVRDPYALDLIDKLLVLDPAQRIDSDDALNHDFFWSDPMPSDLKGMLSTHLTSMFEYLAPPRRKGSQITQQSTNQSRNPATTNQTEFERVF
Sequence of CDK9/CyclinT1 (O60563 whole entry partner): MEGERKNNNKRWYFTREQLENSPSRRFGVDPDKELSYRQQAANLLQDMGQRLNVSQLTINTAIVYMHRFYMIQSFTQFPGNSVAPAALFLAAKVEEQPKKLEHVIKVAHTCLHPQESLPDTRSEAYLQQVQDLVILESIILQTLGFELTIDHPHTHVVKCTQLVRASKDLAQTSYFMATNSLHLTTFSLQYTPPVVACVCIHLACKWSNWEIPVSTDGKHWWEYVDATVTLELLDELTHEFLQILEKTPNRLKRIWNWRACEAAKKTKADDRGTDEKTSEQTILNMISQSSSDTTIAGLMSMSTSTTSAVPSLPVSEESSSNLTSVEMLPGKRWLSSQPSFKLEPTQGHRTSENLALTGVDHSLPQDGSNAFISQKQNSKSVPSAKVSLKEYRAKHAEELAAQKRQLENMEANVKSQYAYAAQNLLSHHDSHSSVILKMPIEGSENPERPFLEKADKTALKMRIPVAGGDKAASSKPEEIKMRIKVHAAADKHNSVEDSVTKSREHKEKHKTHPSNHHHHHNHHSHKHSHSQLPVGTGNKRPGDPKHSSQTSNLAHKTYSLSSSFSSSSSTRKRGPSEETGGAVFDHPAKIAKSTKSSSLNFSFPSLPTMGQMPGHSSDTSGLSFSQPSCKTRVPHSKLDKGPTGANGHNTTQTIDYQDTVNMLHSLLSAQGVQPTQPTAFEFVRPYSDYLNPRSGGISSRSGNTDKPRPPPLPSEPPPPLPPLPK
Sequence of CDK12 (Q9NYV4 whole entry): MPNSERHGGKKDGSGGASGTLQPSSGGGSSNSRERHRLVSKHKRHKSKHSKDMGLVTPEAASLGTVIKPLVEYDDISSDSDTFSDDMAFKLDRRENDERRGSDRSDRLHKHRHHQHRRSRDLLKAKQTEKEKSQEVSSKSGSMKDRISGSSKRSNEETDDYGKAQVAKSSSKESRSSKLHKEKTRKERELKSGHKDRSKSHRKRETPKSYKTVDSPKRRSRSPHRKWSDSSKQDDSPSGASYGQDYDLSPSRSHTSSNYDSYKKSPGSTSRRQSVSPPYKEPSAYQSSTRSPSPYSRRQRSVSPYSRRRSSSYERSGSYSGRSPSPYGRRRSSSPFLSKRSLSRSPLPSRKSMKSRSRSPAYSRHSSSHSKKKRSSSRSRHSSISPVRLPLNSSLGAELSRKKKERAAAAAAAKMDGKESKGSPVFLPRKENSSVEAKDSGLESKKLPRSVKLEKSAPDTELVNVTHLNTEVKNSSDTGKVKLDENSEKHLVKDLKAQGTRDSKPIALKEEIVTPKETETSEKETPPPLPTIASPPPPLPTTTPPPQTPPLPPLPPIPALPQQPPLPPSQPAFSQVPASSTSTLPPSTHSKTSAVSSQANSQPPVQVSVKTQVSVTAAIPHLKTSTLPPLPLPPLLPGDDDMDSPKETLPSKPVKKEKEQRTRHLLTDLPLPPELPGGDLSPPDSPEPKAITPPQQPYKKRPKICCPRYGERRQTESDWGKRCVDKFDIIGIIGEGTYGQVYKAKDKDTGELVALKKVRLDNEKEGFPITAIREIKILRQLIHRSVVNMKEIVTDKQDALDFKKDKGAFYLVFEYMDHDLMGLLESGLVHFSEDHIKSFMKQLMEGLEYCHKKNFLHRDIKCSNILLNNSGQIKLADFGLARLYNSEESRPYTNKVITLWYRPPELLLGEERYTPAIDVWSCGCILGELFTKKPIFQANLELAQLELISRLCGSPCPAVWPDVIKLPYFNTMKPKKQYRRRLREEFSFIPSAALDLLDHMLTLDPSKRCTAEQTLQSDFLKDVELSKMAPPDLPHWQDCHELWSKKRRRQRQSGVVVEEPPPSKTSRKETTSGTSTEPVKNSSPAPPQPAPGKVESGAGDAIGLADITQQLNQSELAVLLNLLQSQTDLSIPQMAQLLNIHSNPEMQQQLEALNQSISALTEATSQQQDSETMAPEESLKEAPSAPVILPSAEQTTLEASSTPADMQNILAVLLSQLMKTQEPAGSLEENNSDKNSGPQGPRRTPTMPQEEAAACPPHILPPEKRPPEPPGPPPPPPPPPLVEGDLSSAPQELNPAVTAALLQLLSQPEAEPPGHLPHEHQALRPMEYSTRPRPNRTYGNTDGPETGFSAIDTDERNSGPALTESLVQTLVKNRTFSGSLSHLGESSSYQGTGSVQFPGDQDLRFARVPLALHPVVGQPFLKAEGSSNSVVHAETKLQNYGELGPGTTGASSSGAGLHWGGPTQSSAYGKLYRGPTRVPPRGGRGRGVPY
Sequence of CDK12 (O75909 whole entry partner): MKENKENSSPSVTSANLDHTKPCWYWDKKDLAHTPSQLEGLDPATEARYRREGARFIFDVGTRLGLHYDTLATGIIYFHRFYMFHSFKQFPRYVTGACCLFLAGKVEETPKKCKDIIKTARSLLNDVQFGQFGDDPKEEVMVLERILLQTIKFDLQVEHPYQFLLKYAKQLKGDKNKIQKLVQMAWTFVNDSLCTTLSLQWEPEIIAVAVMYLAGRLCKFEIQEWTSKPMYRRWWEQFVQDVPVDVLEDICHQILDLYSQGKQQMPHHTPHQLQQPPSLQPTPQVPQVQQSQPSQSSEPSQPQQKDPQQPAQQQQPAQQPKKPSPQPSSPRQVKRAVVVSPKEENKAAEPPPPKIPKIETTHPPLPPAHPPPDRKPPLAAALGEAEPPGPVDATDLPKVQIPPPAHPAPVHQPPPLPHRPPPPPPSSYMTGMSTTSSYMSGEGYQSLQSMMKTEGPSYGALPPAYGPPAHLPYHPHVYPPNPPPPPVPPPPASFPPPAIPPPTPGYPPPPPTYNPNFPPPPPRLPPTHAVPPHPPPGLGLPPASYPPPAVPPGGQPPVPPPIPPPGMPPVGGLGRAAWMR

As for `FC(F)(F)c1ccc(-c2cnc(CNc3nc(N4CCOCC4)nc4c(C(F)(F)F)cnn34)[nH]2)cc1` [Example 9, 2-(morpholin-4-yl)-8-(trifluoromethyl)-N-({5-[4-(trifluoromethyl)phenyl]-1H-imidazol-2-yl}methyl)pyrazolo[1,5-a][1,3,5]triazin-4-amine], the results for the IC50 (on CDK9/CyclinT1; in assay [1]) were above 19100 nM and 102 nM, respectively. Besides, on CDK12, the DC50 turned out to be 950 nM.

On to `FC(F)(F)Oc1ccc(-c2cnc(CNc3nc(N4CCOCC4)nc4c(C(F)(F)F)cnn34)[nH]2)cc1` [Example 10, 2-(morpholin-4-yl)-N-({5-[4-(trifluoromethoxy)phenyl]-1H-imidazol-2-yl}methyl)-8-(trifluoromethyl)pyrazolo[1,5-a][1,3,5]triazin-4-amine], for which the IC50 at CDK9/CyclinT1 was above 20000 nM; in assay [1], 37.3 nM. Also, the DC50 on CDK12 is above 1000 nM.

On to `FC(F)(F)c1ccc(-c2cnc(CNc3nc(N4CCOCC4)nn4c(C(F)(F)F)cnc34)[nH]2)cn1` [Example 12, 2-(morpholin-4-yl)-7-(trifluoromethyl)-N-({5-[6-(trifluoromethyl)pyridin-3-yl]-1H-imidazol-2-yl}methyl)imidazo[2,1-f][1,2,4]triazin-4-amine], for which the IC50 on CDK9/CyclinT1 is above 20000 nM; in assay [1] it was 7.57 nM. Further, the DC50 at CDK12 is above 1000 nM.

With `FC(F)(F)c1ccc(-c2nnc(CNc3nc(N4CCOCC4)nn4c(C(F)(F)F)cnc34)[nH]2)cn1` [Example 20, 2-(morpholin-4-yl)-7-(trifluoromethyl)-N-({5-[6-(trifluoromethyl)pyridin-3-yl]-4H-1,2,4-triazol-3-yl}methyl)imidazo[2,1-f][1,2,4]triazin-4-amine], the IC50 on CDK9/CyclinT1 was 847 nM; in assay [1], 53.8 nM. Besides, the DC50 at CDK12 is above 1000 nM.

As for `COc1ccc(-c2cnc(CNc3nc(N4CCOCC4)nc4c(C(F)(F)F)cnn34)[nH]2)cn1` [Example 21, N-{[5-(6-methoxypyridin-3-yl)-1H-imidazol-2-yl]methyl}-2-(morpholin-4-yl)-8-(trifluoromethyl)pyrazolo[1,5-a][1,3,5]triazin-4-amine], the values for the IC50 (at CDK9/CyclinT1; in assay [1]) were 3050 nM and 98.8 nM, respectively. Moreover, the DC50 at CDK12 is above 1000 nM.

Turning to `Cc1ccc(-c2nnc(CNc3nc(N4CCOCC4)nn4c(C(F)(F)F)cnc34)[nH]2)cn1` [Example 23, N-{[5-(6-methylpyridin-3-yl)-4H-1,2,4-triazol-3-yl]methyl}-2-(morpholin-4-yl)-7-(trifluoromethyl)imidazo[2,1-f][1,2,4]triazin-4-amine], the IC50 stood at 624 nM on CDK9/CyclinT1 and 102 nM in assay [1]. Moreover, the DC50 at CDK12 is above 1000 nM.
